The values below come from article PMC5340293 (Bioorganic & medicinal chemistry letters, 2016).

Molecules are shown by their SMILES. Like-named read-outs stand apart in the source and are kept apart here.

Assay [1] concerns the target T1, PAR4 (Homo sapiens, UniProt Q96RI0).
T1 sequence (Q96RI0 18-385): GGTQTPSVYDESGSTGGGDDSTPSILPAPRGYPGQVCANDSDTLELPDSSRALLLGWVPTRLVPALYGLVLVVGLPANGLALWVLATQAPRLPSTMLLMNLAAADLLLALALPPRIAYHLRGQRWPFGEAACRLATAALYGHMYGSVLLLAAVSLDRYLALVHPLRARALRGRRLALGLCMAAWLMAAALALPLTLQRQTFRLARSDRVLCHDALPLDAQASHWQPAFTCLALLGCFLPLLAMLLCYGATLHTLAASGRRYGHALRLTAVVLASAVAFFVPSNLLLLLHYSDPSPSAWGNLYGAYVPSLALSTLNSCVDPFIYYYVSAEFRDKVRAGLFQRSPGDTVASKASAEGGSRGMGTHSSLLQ
The experiment in a line: Progressive fold-shift. In kind it is cell-based. As to conditions: for mode of PAR4 inhibition: progressive fold-shift, parallel right-ward shift of CRC.

Assay [2] has as its target T1, PAR4. Briefly: PAR4-AP stimulated PAC-1 binding, flow cytometry. The format is cell-based.
Assay [3] concerns the target T1, PAR4. As to conditions: cited from earlier work.
The test system of another assay is collagen receptor. The experiment in a line: Platelet aggregation, collagen I activation. In kind it is cell-based, human. The settings on record: 10 μg/ml collagen I; antagonist at micromolar concentrations.
Assay [4] deals with T2, PAR4 (Homo sapiens, UniProt Q96RI0).
T2 sequence (Q96RI0 48-385 limits assumed): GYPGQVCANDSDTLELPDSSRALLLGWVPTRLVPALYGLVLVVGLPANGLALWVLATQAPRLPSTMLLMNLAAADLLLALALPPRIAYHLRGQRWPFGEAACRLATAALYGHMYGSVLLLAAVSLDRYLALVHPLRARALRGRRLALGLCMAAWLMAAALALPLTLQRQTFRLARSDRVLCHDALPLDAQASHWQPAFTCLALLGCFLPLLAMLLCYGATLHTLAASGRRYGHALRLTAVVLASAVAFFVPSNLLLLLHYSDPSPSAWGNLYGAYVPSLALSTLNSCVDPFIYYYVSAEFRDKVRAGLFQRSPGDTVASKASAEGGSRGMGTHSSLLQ
The experiment in a line: γ-thrombin stimulated PAC-1 binding, flow cytometry. The format is cell-based.

With `COc1nn2cc(-c3ccc(C(F)(F)F)cc3)nc2s1` [4c], at PAR4 [1], the “Schild EC50 log DR-1 versus log [antagonist] plot slope” value came to 0.95±0.09 and the “mode of PAR4 inhibition” value is recorded as “competitive”.

On to `COc1nn2cc(-c3ccc(Cl)cc3)nc2s1` [4k], for which, at PAR4 [1], the “Schild EC50 log DR-1 versus log [antagonist] plot slope” value is listed as 1.09±1.3 and the “mode of PAR4 inhibition” value is recorded as “competitive”.

`COc1nn2cc(-c3ccc(OC(F)(F)F)cc3)nc2s1` [4n]: on PAR4 [1], the “Schild EC50 log DR-1 versus log [antagonist] plot slope” value is given as 0.94±0.08 and the “mode of PAR4 inhibition” value was “competitive”.

On to `CNc1nn2cc(-c3c(F)cccc3F)nc2s1` [NHCH3 derivative], for which, on PAR4 [2] (result in words), the PAR4 inhibitory activity result is “inactive”.

As for `COc1cc(OCc2csc(-c3ccccc3)n2)c2cc(-c3cn4nc(OC)sc4n3)oc2c1` [compound 2], at PAR4 [3], the “mode of PAR4 inhibition” value is “mixed competitive/non-competitive”.

Regarding `COc1nn2cc(-c3cc4ccccc4o3)nc2s1` [compound 3, 6-(benzofuran-2-yl)-2-methoxyimidazo[2,1-b][1,3,4]thiadiazole], the “off-target effects on the collagen receptor (collagen I induced aggregation)” value in the assay with collagen receptor is given as “devoid”.

As to `COc1nn2cc(-c3cc4cc(OC(F)(F)F)ccc4n3C)nc2s1` [compound 5], the “γ-thrombin ligand efficiency (LE)” value at PAR4 [4] is 0.33. The “fold more potent than 1 against AP” value at PAR4 [2] is reported as ~ 9 fold. The “off-target effects on the collagen receptor (collagen I induced aggregation)” value in the assay on collagen receptor is on record as “eliminated”.
